Consider one compound from patent publication US20090270361A1, “Substituted pyrazole derivatives and use thereof” (Takeda Pharmaceutical Company Limited, priority 2008, published 2009).

Assay [1] addresses T1, LNCaP type mutant androgen receptor (AR) (Homo sapiens, UniProt P10275, T878A).
T1 sequence (P10275 1-920 T878A): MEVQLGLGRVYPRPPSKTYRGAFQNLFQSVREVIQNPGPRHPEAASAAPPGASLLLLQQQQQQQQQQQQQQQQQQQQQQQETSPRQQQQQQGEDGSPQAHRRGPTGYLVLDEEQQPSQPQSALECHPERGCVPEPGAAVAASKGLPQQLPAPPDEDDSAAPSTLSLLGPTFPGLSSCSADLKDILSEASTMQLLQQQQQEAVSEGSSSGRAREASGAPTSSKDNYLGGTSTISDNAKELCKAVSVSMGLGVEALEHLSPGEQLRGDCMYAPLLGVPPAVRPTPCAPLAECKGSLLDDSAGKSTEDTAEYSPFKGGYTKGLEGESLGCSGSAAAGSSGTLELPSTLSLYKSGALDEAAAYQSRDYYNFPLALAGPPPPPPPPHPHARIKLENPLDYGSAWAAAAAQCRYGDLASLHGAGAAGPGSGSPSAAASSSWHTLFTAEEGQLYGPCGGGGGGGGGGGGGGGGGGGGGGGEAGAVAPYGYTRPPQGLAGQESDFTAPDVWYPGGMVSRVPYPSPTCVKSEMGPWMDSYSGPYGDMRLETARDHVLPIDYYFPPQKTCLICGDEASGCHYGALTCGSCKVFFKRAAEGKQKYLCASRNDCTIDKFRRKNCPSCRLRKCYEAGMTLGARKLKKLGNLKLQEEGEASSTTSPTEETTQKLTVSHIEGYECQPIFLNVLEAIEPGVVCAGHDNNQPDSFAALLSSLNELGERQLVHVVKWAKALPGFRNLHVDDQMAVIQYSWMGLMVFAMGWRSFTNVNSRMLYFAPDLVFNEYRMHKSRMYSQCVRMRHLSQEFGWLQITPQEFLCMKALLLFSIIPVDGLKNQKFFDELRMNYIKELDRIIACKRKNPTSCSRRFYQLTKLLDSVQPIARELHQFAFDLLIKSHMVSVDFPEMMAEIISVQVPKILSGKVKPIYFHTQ
As to the kind of experiment: AR-binding inhibition test (LNCaP type), radio-labeled Mibolerone displacement. The settings on record: compound final concentration 1 μM; 3 nM radio-labeled Mibolerone; 4° C., 3 hours; dextran/charcoal method; read-out: inhibition rate, LNCaP type. How it is done:
(§1) AR-Binding Inhibition Test (Wild Type and LNCaP Type)
(§2) To a solution of wild type or LNCaP type mutant androgen receptor (AR) was added 3 nM radio-labeled Mibolerone and final concentration 1 μM of the compound. The mixture was incubated at 4° C. for 3 hours, and B (Bound) and F (Free) Mibolerones were separated by the dextran/charcoal method. The label count of B was measured and the inhibition rate of the compound was calculated.

In assay [2] the test system is Human prostate cancer cells LNCaP-FGC. The assay is described as follows: Prostate specific antigen (PSA) production inhibition test in prostate cancer cells. Format: cell-based. The settings on record: Homo sapiens, 72 h; compound 1 μM; testosterone final concentration 0.1 ng/m; PSA in culture supernatant after 3 days by ELISA; testosterone non-addition group = 100%, testosterone addition group = 0%; read-out: PSA production inhibitory rate (%).

Assay [3] concerns the target T2, mutant AR (W741C) (Homo sapiens, UniProt P10275, W742C).
T2 construct: expressed in transfected cells; host or cells: Cos-7
T2 sequence (P10275 1-920 W742C): T1 sequence (P10275 1-920 T878A) with W742C, A878T
As to the kind of experiment: AR transcription inhibition test (luciferase reporter in Cos-7 cells). In kind it is cell-based. The settings on record: compound 1 μM; DHT 0.1 μM; Cos-7 cells cotransfected with mutant AR (W741C) and androgen responsive luciferase reporter; 24 hr; relative to control (0.1 μM DHT); read-out: AR transcription inhibitory rate (%). How it is done:
AR Transcription Inhibition Test
Cos-7 cells (5,000,000 cells) were inoculated to a flask, and incubated in a culture medium (DMEM +10% Dextran Charcoal (DCC)-Fetal Bovine Serum (FBS) and 2 mM glutamine) for 24 hours. Then, a vector DNA harboring mutant AR (W741C) and a vector DNA containing a luciferase gene bound at the downstream of an androgen responsive promoter were cotransfected by a liposome method. After 4 hr, the medium was changed and, after culture for 3 hr, DHT (dihydrotestosterone) at the final concentration of 0.1 μM and the compound at the final concentration of 1 μM were added. After further culture for 24 hr, the luciferase activity was measured, and the AR transcription inhibitory activity of the compound was examined.
On the technique in general: Reporter assays use an easily measured gene product as a stand-in for the process of interest.

The target in assay [4] is T3, wild type androgen receptor (AR) (Homo sapiens, UniProt P10275).
T3 sequence (P10275 1-920): T1 sequence (P10275 1-920 T878A) with A878T
As to the kind of experiment: AR-binding inhibition test (wild type), radio-labeled Mibolerone displacement. The settings on record: compound final concentration 1 μM; 3 nM radio-labeled Mibolerone; 4° C., 3 hours; dextran/charcoal method; read-out: inhibition rate, wild type. The protocol: as §1, §2

The structures appear in SMILES notation. Changes are numbered by the printed parent chain.

For `Cc1nn(-c2ccc(C#N)c(Cl)c2)c(C)c1Oc1ccc(C(=O)N2CCS(=O)(=O)CC2)cc1` [Example 367, 2-chloro-4-(4-{4-[(1,1-dioxidethiomorpholin-4-yl)carbonyl]phenoxy}-3,5-dimethyl-1H-pyrazol-1-yl)benzonitrile], the inhibition at 1 µM stood at 77% in assay [1], 109% in assay [2], 24% in assay [3] and 49% in assay [4].
